Measured values published in paper PMC11302729, “Repurposing Hsp90 inhibitors as antimicrobials targeting two-component systems identifies compounds leading to loss of bacterial membrane integrity” (Microbiology Spectrum, 2024).
In brackets after ≈: the same amount, converted by molar mass. Like-named read-outs stand apart in the source and are kept apart here.

Assays:
Type in all cases: cell-based
[1] = tested on: Pseudomonas aeruginosa ATCC 27853; assay: MIC (microdilution) against P. aeruginosa; settings: for MIC: Pseudomonas aeruginosa; for MIC P. aeruginosa: Table ST1
Procedure, shortened: (§1)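 Optical density at 600 nm after 18 h incubation at 37°C determined the MIC as the lowest inhibitory concentration. Twofold dilutions in Mueller-Hinton broth covered 50–0.39 µg/mL final.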

[2] = tested on: Staphylococcus aureus str. Newman; assay: Minimal inhibitory concentration (microdilution) against S. aureus; settings: for MIC S. aureus: Table ST3
Procedure, shortened: as §1

[3] = tested on: Escherichia coli JW5503 (ΔtolC); assay: MIC (microdilution) against E. coli JW5503; settings: for MIC: Escherichia coli, read-out: MIC E. coli JW5503; for MIC E. coli JW5503: Table ST1, ΔtolC mutant
Procedure, shortened: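 Tested on E. coli JW5503 (ΔtolC, no TolC efflux) and D21f2 (defective LPS inner core, more permeable outer membrane) per EUCAST microdilution in Mueller-Hinton broth, twofold dilutions 50 to 0.39 µg/mL, 1:100-diluted overnight culture. 18 h at 37°C. MIC = lowest concentration with no growth by OD600.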

[4] = tested on: Enterococcus faecium vanA (strain E1654); assay: MIC (microdilution) against E. faecium; settings: for MIC: Enterococcus faecium, read-out: MIC E. faecium; for MIC E. faecium: Table ST1
Procedure, shortened: as §1

[5] = tested on: Escherichia coli ATCC 25922; assay: MIC (microdilution) against E. coli; settings: for MIC: Escherichia coli; for MIC E. coli: Table ST1
Procedure, shortened: as §1

[6] = tested on: Enterococcus faecalis vanA (strain E0155); assay: MIC (microdilution) against E. faecalis; settings: for MIC: Enterococcus faecalis, read-out: MIC E. faecalis; for MIC E. faecalis: Table ST1
Procedure, shortened: as §1

[7] = tested on: S. aureus str. Newman; assay: Membrane permeability using SYTOX-Green, flow cytometry; settings: for % FITC stained bacteria 0.5 xMIC: 0.5× MIC; for % FITC stained bacteria 2 xMIC: 2× MIC; for Membrane damage: if considered to cause membrane damage to S. aureus
Procedure, shortened: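 Exponential-phase cells (OD600 0.4) in MHB were exposed to compound, pelleted into PBS, and stained with 0.5 µM SYTOX Green for 5 min in the dark. After washing off unbound dye, uptake was read by flow cytometry in the FITC channel, 488 nm excitation. Nisin and novobiocin served as positive and negative permeabilization controls.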

[8] = ATCC27853, Table 1, read-out: MIC P. aeruginosa
[9] = Staphylococcus aureus, NEWMAN, Fig 2
[10] = Staphylococcus aureus, NEWMAN, Fig 2, value in parentheses
[11] = Table ST3, value in parentheses
[12] = ATCC25922, Table 1, read-out: MIC E. coli
[13] = ATCC27853, read-out: MIC P. aeruginosa
[14] = ATCC25922, read-out: MIC E. coli

Row | SMILES | MIC [1, 8] | MIC P. aeruginosa [1] | MIC [2, 9] | MIC [2, 10] | MIC S. aureus [2] | MIC [2, 11] | MIC [3] | MIC E. coli JW5503 [3] | MIC [4] | MIC E. faecium [4] | MIC [5, 12] | MIC E. coli [5] | MIC [6] | MIC E. faecalis [6] | % FITC stained bacteria 0.5 xMIC ([7]; 5 min exposure) | % FITC stained bacteria 1 xMIC ([7]; 1× MIC, 5 min exposure) | % FITC stained bacteria 2 xMIC ([7]; 5 min exposure) | Membrane damage [7] | MIC [1, 13] | MIC [5, 14] | also measured
1 | COc1ccc(-c2[nH]nc(C(F)(F)F)c2-c2ccccc2)c(O)c1 [DPP-2] | > 250 µg/mL | >250 µg/mL | 12.5 µg/mL | 37.3 µM | 12.50 µg/mL (≈ 37.4 µM) | 37.3 µM | 6.25 µg/mL (≈ 18.7 µM) | 6.25 µg/mL (≈ 18.7 µM) | 25 µg/mL (≈ 74.8 µM) | 25 µg/mL (≈ 74.8 µM) | > 250 µg/mL | >250 µg/mL | 25 µg/mL (≈ 74.8 µM) | 25 µg/mL (≈ 74.8 µM) | 49.81% | 54.03% | 63.56% | YES | – | – | –
2 | Oc1ccc(-c2n[nH]c(C(F)(F)F)c2-c2ccc(Cl)cc2)c(O)c1 [DPP-5] | > 250 µg/mL | >250 µg/mL | 3.12 µg/mL | 8.79 µM | 3.12 µg/mL (≈ 8.8 µM) | 8.79 µM | 3.12 µg/mL (≈ 8.8 µM) | 3.12 µg/mL (≈ 8.8 µM) | 12.5 µg/mL (≈ 35.2 µM) | 12.5 µg/mL (≈ 35.2 µM) | 50 µg/mL (≈ 141 µM) | 50 µg/mL (≈ 141 µM) | 12.5 µg/mL (≈ 35.2 µM) | 12.5 µg/mL (≈ 35.2 µM) | 13.40% | 13.42% | 41.29% | MILD | – | – | Loss of membrane integrity ([7]; 1× MIC, 5 min exposure): did not cause significant loss of membrane integrity
3 | COc1ccc(-c2[nH]nc(C(F)(F)F)c2-c2ccc(Cl)cc2)c(O)c1 [DPP-6] | > 250 µg/mL | >250 µg/mL | 3.12 µg/mL | 8.43 µM | 3.12 µg/mL (≈ 8.46 µM) | 8.43 µM | 3.12 µg/mL (≈ 8.46 µM) | 3.12 µg/mL (≈ 8.46 µM) | 6.25 µg/mL (≈ 16.9 µM) | 6.25 µg/mL (≈ 16.9 µM) | > 250 µg/mL | >250 µg/mL | 6.25 µg/mL (≈ 16.9 µM) | 6.25 µg/mL (≈ 16.9 µM) | 36.93% | 44.48% | 48.91% | YES | – | – | –
4 | CCOc1ccc(-c2[nH]nc(C(F)(F)F)c2-c2ccc(Cl)cc2)c(O)c1 [DPP-7] | > 250 µg/mL | >250 µg/mL | 3.12 µg/mL | 8.21 µM | 3.12 µg/mL (≈ 8.15 µM) | 8.21 µM | 3.12 µg/mL (≈ 8.15 µM) | 3.12 µg/mL (≈ 8.15 µM) | 3.12 µg/mL (≈ 8.15 µM) | 3.12 µg/mL (≈ 8.15 µM) | > 250 µg/mL | >250 µg/mL | 3.12 µg/mL (≈ 8.15 µM) | 3.12 µg/mL (≈ 8.15 µM) | 42.44% | 50.30% | 54.59% | YES | – | – | –
5 | COc1ccc(-c2c(C(F)(F)F)n[nH]c2-c2ccc(O)cc2O)cc1 [DPP-12] | – | >250 µg/mL | 12.5 µg/mL | 35.7 µM | 12.50 µg/mL (≈ 35.7 µM) | 35.71 µM | 12.5 µg/mL (≈ 35.7 µM) | 12.5 µg/mL (≈ 35.7 µM) | 50 µg/mL (≈ 143 µM) | 50 µg/mL (≈ 143 µM) | – | >250 µg/mL | 50 µg/mL (≈ 143 µM) | 50 µg/mL (≈ 143 µM) | 9.04% | 24.16% | 29.11% | MILD | > 250 µg/mL | > 250 µg/mL | –
6 | COc1ccc(-c2c(C(F)(F)F)n[nH]c2-c2ccc(OC)cc2O)cc1 [DPP-13] | – | >250 µg/mL | 12.5 µg/mL | 34.3 µM | 12.50 µg/mL (≈ 34.3 µM) | 34.34 µM | 12.5 µg/mL (≈ 34.3 µM) | 12.5 µg/mL (≈ 34.3 µM) | 25 µg/mL (≈ 68.6 µM) | 25 µg/mL (≈ 68.6 µM) | – | >250 µg/mL | 25 µg/mL (≈ 68.6 µM) | 25 µg/mL (≈ 68.6 µM) | 35.10% | 45.40% | 45.44% | YES | > 250 µg/mL | > 250 µg/mL | –
